How the values were obtained:
[1] = test system: tumor growth; conditions: in vitro and in vivo models; cited from earlier work
[2] = test system: WI-38 fibroblasts; assay: doxorubicin exposure, induction of cell senescence; assay type: cell-based, human; conditions: exposure to doxorubicin, FIG. 2
Procedure: To illustrate the relationship between the TOR pathway and cell senescence, experiments were performed using WI-38 fibroblasts, a cell line that is commonly used to investigate cell senescence (Sarraj et al., 2001). […] Cell senescence is characterized by a large and flat cell morphology, beta-galactosidase expression in the cytoplasm as a terminal, non-replicative condition.

[3] = test system: rodents; conditions: rodents (Anisimov et al., 2005); cited from earlier work
[4] = rapamycin administration (Kahan, 2004; Rodriguez et al., 2006); cited from earlier work

Question: For `CO[C@H]1C[C@@H]2CC[C@@H](C)[C@@](O)(O2)C(=O)C(=O)N2CCCC[C@H]2C(=O)O[C@H]([C@H](C)C[C@@H]2CC[C@@H](OC(=O)C(C)(CO)CO)[C@H](OC)C2)CC(=O)[C@H](C)/C=C(\C)[C@@H](O)[C@@H](OC)C(=O)[C@H](C)C[C@H](C)/C=C/C=C/C=C/1C` [CCI-779, Rapamycin 42-ester with 3-hydroxy-2-(hydroxymethyl)-2-methylpropionic acid], which “effect on tumor growth” value [1] is on record?
Answer: Its value is “significant inhibitory effects on tumor growth”.

Question: With `COc1cccc2c1C(=O)c1c(O)c3c(c(O)c1C2=O)C[C@@](O)(C(=O)CO)C[C@@H]3O[C@H]1C[C@H](N)[C@H](O)[C@H](C)O1` [doxorubicin] as the compound, how does the “induction of cell senescence” value [2] read?
Answer: The value was “induces accelerated cell senescence”.

Question: Which life span [3] does the source give for `CN(C)C(=N)N=C(N)N` [metformin] here?
Answer: Its life span is “extend life span”.

Question: With `[H]/N=C(/N)N/C(=N/[H])NCCc1ccccc1` [phenformin] as the compound, how does the life span [3] read?
Answer: The life span was “extend life span”.

Question: Which “most common side effect” value [4] does the source give for `CO[C@H]1C[C@@H]2CC[C@@H](C)[C@@](O)(O2)C(=O)C(=O)N2CCCC[C@H]2C(=O)O[C@H]([C@H](C)C[C@@H]2CC[C@@H](O)[C@H](OC)C2)CC(=O)[C@H](C)/C=C(\C)[C@@H](O)[C@@H](OC)C(=O)[C@H](C)C[C@H](C)/C=C/C=C/C=C/1C` [rapamycin] here?
Answer: The value was “increase of blood lipids”.
